“Also recorded” adds a separate entry of the source.

In series [1] the test system is Madin-Darby canine kidney (MDCK) cells. The series is described as follows: Membrane potential of living cells with bis-oxonol (DiBAC4(3)). Type of series: cell-based. From the text: To determine the potential of Example 2 for application in biological and medicinal science, Example 2 was investigated for incorporating into the plasma membranes of living cells and, thereby, modulating their membrane potentials by increasing chloride permeability of the cell membranes. A potential-sensitive dye his-oxonal was used to measure the relative changes in membrane potential of the Madin-Darby canine kidney (MDCK) cells, a model for the renal distal tubule and collecting duct that secrete chloride ions. An increase in fluorescence of bis-oxonal indicated cell depolarization while a decrease indicated hyperpolarization. […] This depolarization effect could be ascribed to that the chloride equilibrium potential (ECl) was higher than the resting membrane potential in MDCK cells. Thus, the opening of chloride channels shifted the membrane potential towards the ECl.
In summary, FIG. 14A-E show the effects of adding different substances, including Example 2, on the membrane potential of Madin-Darby canine kidney (MDCK) cells. Membrane potentials of MDCK cells were monitored by the changes of emission intensity of the potential-sensitive dye bis-oxonol (DiBAC4(3)). The increase in the fluorescence intensity indicates depolarization. […] Each point in FIG. 14A-E represents the mean±s.e. (n=20-80 cells in 4-6 experiments).

In series [2] the test system is mouse thoracic aortic rings. Nature of the series: Vasorelaxation of aortic rings preconstricted by high-K solution (organ bath). The settings on record: aortic rings preconstricted by high-K (60 mM K+) solution, n=5, read-out: half-maximal relaxation value IC50. From the text: Example 52 was for investigating whether Example 2 could promote vasorelaxation during vasoconstriction induced by depolarization. Mouse thoracic aortic rings was mounted in an organ bath apparatus and measured their muscular activity.

Series [3] is described as follows: Membrane potential of valinomycin-polarized liposomes (safranin O). In kind it is biochemical. The settings on record: KCl-loaded EYPC-liposomes in KCl/Na2SO4; external addition alone. From the text: The ability of Example 2 to modulate membrane potentials in polarized liposomes was investigated. […] This depolarization process induced by Example 2 may be attributed to the formation of chloride channels by Example 2 that mediate chloride ions flow out of the polarized liposomes to balance the electrostatic potential established by valinomycin.

As to `O=C(O)c1ccccc1Nc1ccccc1` [DPC, diphenylamine-2-carboxylate], the “membrane potential (bis-oxonol fluorescence)” value in series [1] (1 mM added alone) was “hyperpolarization of the membrane potential”. Further, the “depolarization induced by low-chloride extracellular solution” value in series [1] (60 mM Cl- Ringer's solution in presence of 1 mM blocker) is given as “entirely inhibited the depolarization effect; also recorded: did not result in depolarization”.

`CC(C)C[C@@H](ONC(=O)c1cccc(C(=O)NO[C@H](CC(C)C)C(=O)OC(C)(C)C)c1)C(=O)OC(C)(C)C` [Example 1] gave a melting point of 57 to 59 °C.

As for `CC(C)CNC(=O)[C@@H](CC(C)C)ONC(=O)c1cccc(C(=O)NO[C@H](CC(C)C)C(=O)NCC(C)C)c1` [Example 2], the IC50 in series [2] was 8.42 ± 0.18 µM.

For the molecule `CCCCCCCCCCCCCCCCCCNC(=O)[C@@H](CC(C)C)ONC(=O)c1cccc(C(=O)NO[C@H](CC(C)C)C(=O)NCCCCCCCCCCCCCCCCCC)c1` [Example 5], the melting point fell in the range of 88 to 90 °C.

Consider `CC(C)CNC(=O)[C@@H](CC(C)C)ONC(=O)c1ccccc1` [Example 6], for which the melting point lay within 130 to 132 °C.

For `CC(C)CNC(=O)[C@@H](CC(C)C)ONC(=O)c1cccc(C(=O)NO[C@H](CC(C)C)C(=O)NCC(C)C)n1` [Example 7], the melting point was 175 to 177 °C.

In turn, `CC(C)CNC(=O)[C@H](CC(C)C)NC(=O)c1cccc(C(=O)N[C@@H](CC(C)C)C(=O)NCC(C)C)c1` [Example 8] displayed a melting point of 240 to 242 °C.

Molecule `CC(C)CNC(=O)[C@H](CC(C)C)OC(=O)c1cccc(C(=O)O[C@@H](CC(C)C)C(=O)NCC(C)C)c1` [Example 9] yielded a melting point of 137 to 139 °C.

Molecule `CC(C)CNC(=O)[C@@H](CO)ONC(=O)c1cccc(C(=O)NO[C@H](CO)C(=O)NCC(C)C)c1` [Example 36] came in with a melting point of 174 to 176 °C.

In the case of `CC(C)CNC(=O)[C@@H](Cc1ccccc1)ONC(=O)c1cccc(C(=O)NO[C@H](Cc2ccccc2)C(=O)NCC(C)C)c1` [Example 37], the melting point was 145 to 148 °C.

As for `CC(C)[C@@H]1NC(=O)[C@H](C)OC(=O)[C@@H](C(C)C)NC(=O)[C@@H](C(C)C)OC(=O)[C@H](C(C)C)NC(=O)[C@H](C)OC(=O)[C@@H](C(C)C)NC(=O)[C@@H](C(C)C)OC(=O)[C@H](C(C)C)NC(=O)[C@H](C)OC(=O)[C@@H](C(C)C)NC(=O)[C@@H](C(C)C)OC1=O` [valinomycin], the “membrane potential of liposomes” value in series [3] is listed as “polarized the liposome”.

The record behind these values is patent publication US9610263B2, “Method of modulating membrane potential of a cell” (VERSITECH LIMITED, priority 2007, dated 2017).
